# In publication PMC8466300, “Investigating the Central Nervous System Disposition of Actinomycin D: Implementation and Evaluation of Cerebral Microdialysis and Brain Tissue Measurements Supported by UPLC-MS/MS Quantification” (Pharmaceutics, 2021):
# Read-outs that look alike come from different tables or passages of the source. *1 amine or outer side, *2 acyl side, *3 side chain or, on linkers, in order; H or OH if unused. Where a SMILES comes first, the peptide text is derived from it. Bridges are numbered along the chain shown (N, C = ends). Roman numbers before positions name the chains, in order. [ ]: non-standard residue; d: D form. Actinocin(9to1) = Cc1c2oc3c(C)ccc(C(=O)[*:1])c3nc-2c(C(=O)[*:2])c(N)c1=O; NMeV = CN[C@H](C(=O)O)C(C)C; Sar = CNCC(=O)O
# Columns and labels:
# in vitro = settings: mouse, plasma
# Description: To determine the previously unknown unbound fraction of actinomycin D in plasma and brain tissue homogenate, we performed rapid equilibrium dialysis (RED) in duplicate. For this, samples were spiked with drug solutions that were prepared in plasma or brain tissue homogenate to obtain minimally diluted samples (30 ng/mL for plasma and 30 ng/g for brain tissue). The free actinomycin D tissue fraction was also quantified in a pooled sample of brain tissue homogenates from the three mice euthanized 2 h after dosing. Determinations were performed on a RED apparatus (ThermoFisher Scientific, Waltham, MA, USA) according to the manufacturer´s instructions under gentle agitation for 12 h at 37 °C.
# [1] = Description: (§1) To confirm the P-gp substrate characteristics of actinomycin D, we conducted growth inhibition and uptake assays in a cell line over-expressing human P-gp/ABCB1 (L-MDR1 cells) in comparison to the respective parental cell line (LLC-PK1). L-MDR1 cells were kindly provided by A. H. Schinkel (The Netherlands Cancer Institute, Division of Experimental Therapy, Amsterdam, The Netherlands). The cells were cultured under standard cell culture conditions with medium M199 supplemented with 10% FCS, 2 mM glutamine, 100 U/mL penicillin, and 100 µg/mL streptomycin sulfate. The culture medium for L-MDR1 was supplemented with 0.64 µM vincristine to maintain P-gp/ABCB1 expression. One day before using the cells in the assays, both cell lines were fed with vincristine-free culture medium.
# (§2) The assays were performed in quadruplicate, as described previously, using ten concentrations of actinomycin D from 0.0005–10 µM in octuplets.
# (§3) Calibration curves were determined with 1/x^2 weighted linear regression using peak area ratios of the analyte to IS. This calculation was performed using the software TargetLynx V4.2 (Waters, Milford, MA, USA). Plasma pharmacokinetics were determined with the software Kinetica (v 5.0; Thermo Fisher Scientific, Waltham, MA, USA). Standard calculations were performed using Microsoft Office Excel 2010 ([…]). Concentration–response curves and IC50 values were calculated by GraphPad Prism version 9.0.0 (GraphPad Software Inc., La Jolla, CA, USA) according to a sigmoid Emax model.
# [2] = test system: L-MDR1 cells (over-expressing human P-gp/ABCB1); settings: ratio of IC50 in P-gp over-expressing versus parental cells
# Description: as §1, §2, §3
# LLC-PK1 cells = settings: read-out: IC50 (proliferation); LLC-PK1 parental cells; four experiments, each concentration in octuplet; ten concentrations 0.0005–10 µM; sigmoid Emax model
# Description: as §1, §2, §3
# [3] = N = 3, UPLC-MS/MS; for Freeze-and-thaw stability, accuracy: plasma, three freeze-and-thaw cycles separated by at least 24 h
# Description: Accuracy was calculated as the percentage of the ratio of the mean determined concentration in individual analytical runs and the nominal value. Precision was expressed in percent and is defined as the coefficient of variation of the measured sample concentrations at each QC level. Three validation runs were analyzed, each containing eight calibration samples in duplicate determination and four QC samples at LLOQ, and low, mid, and high QC concentration in six replicates. Selectivity was evaluated using blank plasma samples from six naïve mice and brain tissue homogenates from two mice. Extraction recovery was calculated from peak areas after extraction from the QC samples divided by the respective peak areas obtained from blank plasma spiked after extraction. Matrix effects were evaluated by comparison of the peak areas of the blank plasma samples spiked after extraction with the respective peak areas of matrix-free UPLC solvent samples spiked with the identical amount. Stability of the analyte was tested in three freeze-and-thaw cycles separated by at least 24 h, in plasma samples stored for 1 month at −25 °C, in microdialysate stored at room temperature for 2 d, and in extracts left in the autosampler for 24 h. Additionally, an incurred sample reanalysis was performed for all plasma samples with sufficient volume for reanalysis.
# [4] = Stability in microdialysis buffer and in solution (assay validation); type: physicochemical; settings: for 6-month stability in solution at 4°C, accuracy: ACN/H2O (1/1) + 0.1% FA solutions, 6 months; for 6-month stability in solution at 4°C, accuracy / 2 days buffer stability at RT, accuracy: N = 3; for 2 days buffer stability at RT, accuracy: microdialysate buffer (1% BSA Ringer)
# Description: Plasma calibration samples were prepared by spiking blank plasma (75 µL) with 25 µL of the calibration sub-solution, yielding plasma concentrations of 0.05, 0.2, 0.5, 1, 3, 10, 30, and 100 ng/mL. Plasma QC samples were prepared accordingly at concentrations of 0.05, 0.15, 3, and 60 ng/mL. Brain tissue homogenate calibration samples were prepared by spiking brain tissue homogenate (75 µL), which was prepared at 100 mg tissue per mL of 5% aqueous ACN containing 0.5% Triton X, with 25 µL of the calibration sub-solution, yielding concentrations corresponding to 0.5, 2, 5, 10, 30, 100, 300, and 1000 ng/g. Brain tissue homogenate QC samples were prepared accordingly, at corresponding concentrations of 0.5, 1.5, 30, and 600 ng/g. Solutions were kept at 4 °C for up to 6 months.
# [5] = Non-specific binding to microdialysis equipment; type: physicochemical; settings: in vitro; polypropylene sampling tubes; reduced by BSA ≥1% in Ringer solution
# Description: In preparation of the cerebral microdialysis, we first investigated the adsorption and recovery characteristics of the microdialysis probes, tubing, and pump system, to test the validity of the microdialysis determinations. […] In order to reduce nonspecific binding, BSA supplement of the microdialysis buffer was tested in different concentrations, ranging from 0.1 to 2%. […] Therefore, 1% BSA in Ringer solution was used for all microdialysis experiments.
# [6] = two patients, three hours after intravenous administration; cited from earlier work
# Source text: However, in this earlier study, actinomycin D was quantified in cerebrospinal fluid three hours after intravenous administration, i.e., in a protein-poor compartment that is also separated from blood and tissue by active barriers. […] In a more recent study in m ...
# in vivo = settings: female, mouse, plasma, iv, 0.5 mg/kg; for level at 6 h / level at 22 h: NSG (NOD.Cg-Prkdc^scid Il2rg^tm1Wjl/SzJ), plasma actinomycin D concentration, incurred sample reanalysis table
# Description: The experiments were carried out in accordance with the European regulations for care and use of laboratory animals (2010/63/EU) under the German license number G-187/18 and the internal reference number DKFZ374, approved by the responsible regional council (Regierungspräsidium Karlsruhe, Germany). Female 8-week-old NSG mice (NOD.Cg-Prkdc^scid Il2rg^tm1Wjl/SzJ-NOD-SCID gamma-mice) with a weight of approximately 25 g were used for the studies. […] Mice received analgesia (metamizole) and anesthesia with isoflurane during surgery. […] Therefore, we chose to take blood samples 0.75, 6, and 22 h after intravenous bolus injection into the tail vein for the assay’s feasibility pharmacokinetic experiment. […] Full blood samples were transferred into citrate tubes (Sarstedt, Germany) and centrifuged at 1600× g for 10 min to generate plasma samples, which were stored at −80 °C until analysis. […] For validation of the UPLC-MS/MS quantification, blank plasma from 6 naïve mice was used and blank brain tissue was obtained from 2 unexposed mice.
# For protein precipitation of plasma microsamples, an excess of ACN (50 µL) with 0.1% FA containing the IS was applied to an Impact® 96-well protein precipitation plate (Phenomenex, Torrance, CA, USA). Subsequently, 20 µL of the plasma samples were added and the plates sealed and shaken for 1 min. […] For protein depletion, samples were filtered into a 96-well collection plate (Waters, Milford, MA, USA) by applying positive pressure with a 96-well positive pressure unit (Waters, Milford, MA, USA) operated with air overpressure of 5 psi. After addition of 40 µL of water containing 0.1% FA, the collection plates were sealed, shaken, and extracts injected onto the UPLC system.
# [7] = 7 months at −20 °C; cited from earlier work
compound,measurement,setting,value
"Cc1c2oc3c(C)ccc(C(=O)N[C@@H]4C(=O)N[C@H](C(C)C)C(=O)N5CCC[C@H]5C(=O)N(C)CC(=O)N(C)[C@@H](C(C)C)C(=O)O[C@@H]4C)c3nc-2c(C(=O)N[C@@H]2C(=O)N[C@H](C(C)C)C(=O)N3CCC[C@H]3C(=O)N(C)CC(=O)N(C)[C@@H](C(C)C)C(=O)O[C@@H]2C)c(N)c1=O [actinomycin D, Actinomycin D] (I: T[dV]P[Sar][NMeV] / II: T[dV]P[Sar][NMeV]; ester I:1-I:C, II:1-II:C; linker I:N-II:N via Actinocin(9to1))","fraction unbound at 12 h, 30 ng/mL",in vitro,0.231
same,IC50,[1],2400 ± 600 nM
same,difference of IC50 L-MDR1 versus LLC-PK1,[2],> 100 fold
same,IC50,LLC-PK1 cells,21 ± 6 nM
same,"1-month plasma stability at -25 °C, accuracy",[3]; High QC 60.0 ng/mL,100.7%
same,"1-month plasma stability at -25 °C, accuracy",[3]; Low QC 0.150 ng/mL,95.6%
same,"1-month plasma stability at -25 °C, accuracy",[3]; Medium QC 3.00 ng/mL,98.3%
same,"Freeze-and-thaw stability, accuracy",[3]; High QC 60.0 ng/mL,87.6%
same,"Freeze-and-thaw stability, accuracy",[3]; Low QC 0.150 ng/mL,93.6%
same,"Freeze-and-thaw stability, accuracy",[3]; Medium QC 3.00 ng/mL,92.0%
same,stability in the microdialysis buffer,"[4]; 1% BSA in Ringer solution, 2 d, room temperature",stable
same,"6-month stability in solution at 4°C, accuracy",[4]; High QC 60.0 ng/mL,87.2%
same,"6-month stability in solution at 4°C, accuracy",[4]; Low QC 0.150 ng/mL,88.3%
same,"6-month stability in solution at 4°C, accuracy",[4]; Medium QC 3.00 ng/mL,86.4%
same,"2 days buffer stability at RT, accuracy","[4]; room temperature, High QC 60.0 ng/mL",104.7%
same,"2 days buffer stability at RT, accuracy","[4]; room temperature, Low QC 0.150 ng/mL",108.7%
same,"2 days buffer stability at RT, accuracy","[4]; room temperature, Medium QC 3.00 ng/mL",113.5%
same,time stable in solution,[4]; stored solutions kept at 4 °C,at least 6 months
same,non-specific binding to microdialysis equipment,[5],substantially adhered
same,cerebrospinal fluid concentration relative to corresponding plasma concentration,[6],approximately 10%
same,level at 6 h,"in vivo; incurred reanalysis, mouse # 6, sampling 6 h",1.17 ng/mL
same,level at 22 h,"in vivo; incurred reanalysis, mouse # 6, sampling 22 h",1.16 ng/mL
same,level at 6 h,"in vivo; incurred reanalysis, mouse # 7, sampling 6 h",5.23 ng/mL
same,level at 22 h,"in vivo; incurred reanalysis, mouse # 7, sampling 22 h",5.17 ng/mL
same,level at 6 h,"in vivo; original analysis, mouse # 6, sampling 6 h",1.31 ng/mL
same,level at 22 h,"in vivo; original analysis, mouse # 6, sampling 22 h",1.36 ng/mL
same,level at 6 h,"in vivo; original analysis, mouse # 7, sampling 6 h",5.51 ng/mL
same,level at 22 h,"in vivo; original analysis, mouse # 7, sampling 22 h",4.48 ng/mL
same,AUC(0-inf),in vivo; NSG,128 ± 31 ng·h/mL
same,Cmax,in vivo; NSG,15.8 ± 5.1 ng/mL
same,Vd,in vivo; NSG,1.1 ± 0.35 L
same,half-life,in vivo; NSG,6.04 ± 0.75 h
same,long-term stability in human plasma,[7],has already been demonstrated
